Test results: US20100184094A1, “USE OF MDCK CELLS IN THE EVALUATION OF CHOLESTEROL MODULATORS” (priority 2007, published 2010)

What was measured:
[1] = molecular target: T1, rat NPC1L1 (Rattus norvegicus, UniProt Q6T3U3); assay: [3H]AS binding to rNPC1L1/HEK293 cells (saturation, kinetics, competition, acid wash); details: for IC50: 5.36 nM [3H]AS, 4 h, 37° C., read-out: IC50 inhibition of [3H]AS binding; for Ki: rNPC1L1/HEK293 cells
T1 construct: expressed in transfected cells
Protocol: rNPC1L1/HEK293 and TsA201 cells were seeded at a density of 10,000 cells per well in 96-well poly-D-lysine coated plates and cells were allowed to attach for approximately 18 h at 37° C. TsA201 cells were subsequently transfected with dog NPC1L1/pcDNA5/FRT according to the manufacturer's instructions (Roche) and incubated for 3 days at 37° C. MDCKII-derived, LLC-PKI, HepG2, or CaCo-2 cells were seeded at a density of 25,000 cells per well in 96-well tissue culture treated plates, and cells were allowed to attach and differentiate for approximately 72 h at 37° C., except for CaCo-2 cells where differentiation took approximately 14 days at 37° C. […] Duplicate samples were averaged for each experimental point. […] To determine the kinetics of ligand association, cells were incubated with [^3H]AS for different periods of time. Dissociation kinetics were determined by addition of 100 μM EZE-gluc, and incubating for different periods of time. Nonspecific binding was defined in the presence of 100 μM EZE-gluc. At the end of the incubation period, cells were washed twice with 200 μl of pre-warmed DMEM to separate bound from free ligand, 1% SDS was added to the wells followed by 5 ml of Scintillant, and radioactivity associated with cells was determined using a β-counter. […] Thereafter, plates were placed on ice and cells were washed twice with ice-cold PBS, followed by ice-cold acid wash with DMEM, pH 3.5, for 1, 5 or 15 minutes. […] For Transwell experiments, MDCKII cells were seeded at 200,000 cells/well in a 24-well plate and incubated for 3 days at 37° C. […] Thereafter, both apical and basolateral compartments were washed three times with PBS, and the Transwell filter was cut out and its associated radioactivity determined using afi-counter. Data from saturation, competition and ligand dissociation experiments were analyzed as described in the literature; see, Priest, et al., 2004 Biochemistry 43:9866-9876; Knaus et al., 1995 Biochemistry 34:13627-13634. The association rate, k1, was determined by employing the pseudo-first-order rate equation k1=kobs([LR]e/[L][LR]max)) where [LR]max is the concentration of the complex at equilibrium, [L] is the concentration of ligand, [LR]max is the total receptor concentration, kobs is the slope of the pseudo-first order plot, ln([LR]e/([LR]e−[LR]t)) versus time, and [LR]t is the receptor-ligand complex at one given time point t.
Incubation of rNPC1L1/HEK293 cells with 5 nM [311]AS results in a time-dependent association of ligand with cells that reaches equilibrium in ˜3 h (FIG. 1B). The nonspecific binding component is time-independent and has been subtracted from the experimental data. A semilogarithmic transformation of the data yielded a linear dependence (FIG. 1B, inset), as expected for a pseudo-first order reaction, and the slope of this line gives kobs of 0.0208 min^−1. The association rate constant, k1, calculated as described under Example 3, is 2.4×10^6 M^−1 min^−1.
Ki values, determined as described above, are presented in Table 1 below and display the expected rank order of potency for interaction of these ligands with rat NPC1L1; Garcia-Calvo et al., 2005 Proc. Natl. Acad. Sci. USA 102:8132-8137.
Such an approach has previously been previously used to characterize cell surface, non-covalent interactions; Hopkins & Trowbridge, 1983 J. Cell Biol. 97:508-521; Chen et al., 1998 Proc. Natl. Acad. USA 95:6373-6378.

[2] = molecular target: dog NPC1L1 (Canis lupus familiaris, UniProt A0A8I3RZG1); assay: [3H]AS binding to dog NPC1L1 transiently expressed in TsA201 cells; details: for IC50: 4.65 nM [3H]AS, 4 h, 37° C., read-out: IC50 inhibition of [3H]AS binding; for Ki: dog NPC1L1/TsA201 cells, read-out: Ki (competition with [3H]AS)
Chain of dog NPC1L1 (A0A8I3RZG1 entry or part of it): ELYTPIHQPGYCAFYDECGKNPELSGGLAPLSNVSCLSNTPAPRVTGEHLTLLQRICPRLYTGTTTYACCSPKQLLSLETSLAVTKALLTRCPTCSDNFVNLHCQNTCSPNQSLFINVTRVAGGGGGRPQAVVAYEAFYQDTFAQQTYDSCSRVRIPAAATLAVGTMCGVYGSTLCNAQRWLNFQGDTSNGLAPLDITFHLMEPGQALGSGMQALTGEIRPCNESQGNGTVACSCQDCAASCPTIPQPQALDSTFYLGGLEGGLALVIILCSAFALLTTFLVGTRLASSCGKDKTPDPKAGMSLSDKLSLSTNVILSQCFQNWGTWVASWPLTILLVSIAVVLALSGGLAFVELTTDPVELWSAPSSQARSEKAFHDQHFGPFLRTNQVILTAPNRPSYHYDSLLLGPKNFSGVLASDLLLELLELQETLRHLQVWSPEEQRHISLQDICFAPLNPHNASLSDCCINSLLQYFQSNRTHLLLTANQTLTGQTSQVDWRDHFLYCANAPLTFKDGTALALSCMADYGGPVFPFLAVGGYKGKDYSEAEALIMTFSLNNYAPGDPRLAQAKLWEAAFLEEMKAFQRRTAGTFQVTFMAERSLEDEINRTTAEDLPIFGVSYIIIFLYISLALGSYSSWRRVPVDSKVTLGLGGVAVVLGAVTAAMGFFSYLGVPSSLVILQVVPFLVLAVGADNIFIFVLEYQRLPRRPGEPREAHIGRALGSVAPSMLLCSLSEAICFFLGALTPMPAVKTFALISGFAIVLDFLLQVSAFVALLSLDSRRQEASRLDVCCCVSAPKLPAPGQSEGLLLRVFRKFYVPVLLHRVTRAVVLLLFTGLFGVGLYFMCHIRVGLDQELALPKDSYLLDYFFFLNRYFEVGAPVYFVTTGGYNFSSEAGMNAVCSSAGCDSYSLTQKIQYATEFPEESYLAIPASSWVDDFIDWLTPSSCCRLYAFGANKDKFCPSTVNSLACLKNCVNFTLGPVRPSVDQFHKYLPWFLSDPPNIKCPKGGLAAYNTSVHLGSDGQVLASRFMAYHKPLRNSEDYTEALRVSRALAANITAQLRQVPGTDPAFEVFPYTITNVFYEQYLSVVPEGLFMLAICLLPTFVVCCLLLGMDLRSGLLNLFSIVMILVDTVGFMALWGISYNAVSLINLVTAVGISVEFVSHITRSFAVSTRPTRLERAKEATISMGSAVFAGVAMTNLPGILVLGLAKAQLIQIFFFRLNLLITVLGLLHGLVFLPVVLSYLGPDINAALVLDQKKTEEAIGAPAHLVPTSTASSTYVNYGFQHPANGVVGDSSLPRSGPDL
Protocol: rNPC1L1/HEK293 and TsA201 cells were seeded at a density of 10,000 cells per well in 96-well poly-D-lysine coated plates and cells were allowed to attach for approximately 18 h at 37° C. TsA201 cells were subsequently transfected with dog NPC1L1/pcDNA5/FRT according to the manufacturer's instructions (Roche) and incubated for 3 days at 37° C. MDCKII-derived, LLC-PKI, HepG2, or CaCo-2 cells were seeded at a density of 25,000 cells per well in 96-well tissue culture treated plates, and cells were allowed to attach and differentiate for approximately 72 h at 37° C., except for CaCo-2 cells where differentiation took approximately 14 days at 37° C. […] Duplicate samples were averaged for each experimental point. […] Dissociation kinetics were determined by addition of 100 μM EZE-gluc, and incubating for different periods of time. Nonspecific binding was defined in the presence of 100 μM EZE-gluc. At the end of the incubation period, cells were washed twice with 200 μl of pre-warmed DMEM to separate bound from free ligand, 1% SDS was added to the wells followed by 5 ml of Scintillant, and radioactivity associated with cells was determined using a β-counter. […] Thereafter, plates were placed on ice and cells were washed twice with ice-cold PBS, followed by ice-cold acid wash with DMEM, pH 3.5, for 1, 5 or 15 minutes. […] For Transwell experiments, MDCKII cells were seeded at 200,000 cells/well in a 24-well plate and incubated for 3 days at 37° C. […] Thereafter, both apical and basolateral compartments were washed three times with PBS, and the Transwell filter was cut out and its associated radioactivity determined using afi-counter. Data from saturation, competition and ligand dissociation experiments were analyzed as described in the literature; see, Priest, et al., 2004 Biochemistry 43:9866-9876; Knaus et al., 1995 Biochemistry 34:13627-13634. The association rate, k1, was determined by employing the pseudo-first-order rate equation k1=kobs([LR]e/[L][LR]max)) where [LR]max is the concentration of the complex at equilibrium, [L] is the concentration of ligand, [LR]max is the total receptor concentration, kobs is the slope of the pseudo-first order plot, ln([LR]e/([LR]e−[LR]t)) versus time, and [LR]t is the receptor-ligand complex at one given time point t.
To further validate this statement, cloned dog NPC1L1 was transiently expressed in TsA201 cells and binding of [^3]AS to these cells was then characterized (FIG. 5 and Table 1).

| SMILES | IC50 [1] [nM] | Ki [1] [nM] | IC50 [2] [nM] | Ki [2] [nM] |
| --- | --- | --- | --- | --- |
| O=C1[C@H](CC[C@H](O)c2ccc(F)cc2)[C@@H](c2ccc(O)cc2)N1c1ccc(F)cc1 [EZE, Ezetimibe] | 398 | 209 ± 40.4 | 111 | 21.5 ± 7.56 |
| O=C(O)[C@H]1O[C@@H](Oc2ccc([C@@H]3[C@@H](CC[C@H](O)c4ccc(F)cc4)C(=O)N3c3ccc(F)cc3)cc2)[C@H](O)[C@@H](O)[C@@H]1O [EZE-gluc, ezetimibe glucuronide] | 182 | 95.1 ± 8.62 | 27 | 5.51 ± 1.52 |
| COC(=O)[C@H]1O[C@@H](Oc2ccc([C@@H]3[C@@H](CC[C@H](O)c4ccc(F)cc4)C(=O)N3c3ccc(C#CCNS(C)(=O)=O)cc3)cc2)[C@H](O)[C@@H](O)[C@@H]1O [PS, 4-[(2S,3R)-3-[(3S)-3-(4-fluorophenyl)-3-hydroxypropyl]-1-(4-{3-[(methylsulfonyl)amino]prop-1-yn-1-yl}phenyl)-4-oxoazetidin-2-yl]phenyl methyl-β-D-glucopyranosiduronate] | 6.61 | 4.07 ± 1.47 | 3.73 | 0.97 ± 0.08 |
